Laboratory results: patent US8779161B2, “Asenapine maleate” (Dr. Reddy's Laboratories Limited, priority 2010, dated 2014)

Tests used:
[1] = Particle size distribution d(10), d(50), d(90); format: physicochemical
Excerpt: For example, particle size distributions of asenapine maleate particles may be measured using microscopy or light scattering equipment, such as, for example, a Malvern Master Size 2000 from Malvern Instruments Limited, Malvern, Worcestershire, United Kingdom. The particle size distributions can be expressed, for example, in terms of d(90), d(50), and d(10) values, where the values (e.g., expressed in μm) are the maximum sizes for 90, 50, and 10 percent of the particles, respectively.
Polymorphs are different solids sharing the same molecular formula, yet having distinct physical properties when compared to other polymorphs of the same formula. As used throughout the disclosure, the D(10), D(50), and D(90) values are useful ways for indicating a particle size distribution. D(90) refers to at least 90 volume percent of the particles having a size smaller than the said value. Likewise, D(10) refers to 10 volume percent of the particles having a size smaller than the said value. D(50) refers to 50 volume percent of the particles having a size smaller than the said value. Methods for determining D(10), D(50), and D(90) include laser diffraction, such as using equipment from Malvern Instruments Ltd. of Malvern, Worcestershire, United Kingdom. HPLC is High Pressure Liquid Chromatography.

[2] = Micronization of asenapine maleate monoclinic form: polymorphic form by PXRD after micronizing; format: physicochemical; details: Midas Micronizer 50, nitrogen carrier gas, 4-6 Kg/cm^2; compared with reference pattern of monoclinic polymorph
Method: All PXRD data reported herein are obtained using a Bruker AXS D8 Advance Powder X-ray Diffractometer or a PANalytical X-ray Diffractometer, using copper Kα radiation. Generally, a diffraction angle (2θ) in powder X-ray diffractometry may have permissible variation in the range of ±0.2°. Although the intensities of peaks in the x-ray powder diffraction patterns of different batches of a compound may vary slightly, the peaks and the peak locations are characteristic for a specific polymorphic form. The relative intensities of the PXRD peaks can vary depending on the sample preparation technique, crystal size distribution, various filters used, the sample mounting procedure, and the particular instrument employed. Moreover, instrument variation and other factors can affect the 2-theta values. Therefore, the term “substantially” in the context of PXRD is meant to encompass that peak assignments can vary by plus or minus about 0.2° 2-theta.

[3] = starting with the monoclinic form; WO 2006/106135 A1, Examples 9 and 10 therein; cited from earlier work
[4] = after micronization, Midas Micronizer 50, nitrogen 4-6 Kg/cm^2
[5] = before micronization (as isolated)

particle size distribution d(10) [1, 4] [μm] | particle size distribution d(50) [1, 4] [μm] | particle size distribution d(90) [1, 4] [μm] | particle size distribution d(10) [1, 5] [μm] | particle size distribution d(50) [1, 5] [μm] | particle size distribution d(90) [1, 5] [μm] | Compound | PXRD Pattern after Micronizing [2] | polymorphic form obtained after micronization [3]
0.994 | 5.516 | 12.715 | 5.671 | 24.077 | 58.716 | CN1C[C@H]2c3ccccc3Oc3ccc(Cl)cc3[C@@H]2C1.O=C(O)/C=C\C(=O)O [Example 11, Asenapine Maleate Monoclinic Form] | – | –
0.887 | 4.632 | 10.678 | 6.269 | 35.229 | 80.698 | CN1C[C@H]2c3ccccc3Oc3ccc(Cl)cc3[C@@H]2C1.O=C(O)/C=C\C(=O)O [Example 13, Asenapine Maleate] | complies with reference pattern of monoclinic polymorph | –
– | – | – | 4.38 | 14.42 | 33.11 | CN1C[C@H]2c3ccccc3Oc3ccc(Cl)cc3[C@@H]2C1.O=C(O)/C=C\C(=O)O [Example 15, Asenapine Maleate Monoclinic Form] | – | –
– | – | – | – | – | 88 | CN1C[C@H]2c3ccccc3Oc3ccc(Cl)cc3[C@@H]2C1.O=C(O)/C=C\C(=O)O [Example 26, Asenapine Maleate] | – | –
– | – | – | – | – | – | CN1C[C@H]2c3ccccc3Oc3ccc(Cl)cc3[C@@H]2C1.O=C(O)/C=C\C(=O)O [form H, asenapine maleate] | – | Either the monoclinic form, or the orthorhombic form or a mixture of polymorphs was obtained
